Results reported in patent US20070117839A1, “Two cyclic cinnamide compound” (Eisai R&D Management Co., Ltd., priority 2005, published 2007).

These compounds were tested on Aβ 42 Production (assay: Quantification of Aβ peptide in culture of neurons from rat fetus brain (Aβ ELISA)). Details: Neuron, 72 h; rat primary neuronal culture (embryonic day 18 Wistar rat cerebral cortex), cultured three days after addition of the compound, Aβx-42 ELISA of the medium; read-out: Activity for reducing Aβ 42 Production IC50.
Type: cell-based
Protocol: Quantification of Aβ Peptide in Culture of Neurons from Rat Fetus Brain
(1) Rat Primary Neuronal Culture
Primary neuronal cultures were prepared from the cerebral cortex of embryonic day 18 Wistar rats (Charles River Japan, Yokohama, Japan). Specifically, the embryos were aseptically removed from pregnant rats under ether anesthesia. The brain was isolated from the embryo and immersed in an ice-cold L-15 medium (Invitrogen Corp. Cat #11415-064, Carlsbad, Calif., USA, or SIGMA L1518, for example). The cerebral cortex was collected from the isolated brain under a stereoscopic microscope. The cerebral cortex fragments collected were enzymatically treated in an enzyme solution containing 0.25% trypsin (Invitrogen Corp. Cat #15050-065, Carlsbad, Calif., USA) and 0.01% DNase (Sigma D5025, St. Louis, Mo., USA) at 37° C. for 30 minutes to disperse the cells. Here, the enzymatic reaction was stopped by adding inactivated horse serum to the solution. The enzymatically treated solution was centrifuged at 1,500 rpm for five minutes to remove the supernatant. 5 to 10 mL of a medium was added to the resulting cell mass. Neurobasal medium (Invitrogen Corp. Cat #21103-049, Carlsbad, Calif., USA) supplemented with 2% B27 supplement (Invitrogen Corp. Cat #17504-044, Carlsbad, Calif., USA), 25 μM 2-mercaptoethanol (2-ME, WAKO Cat #139-06861, Osaka, Japan), 0.5 mM L-glutamine (Invitrogen Corp. Cat #25030-081, Carlsbad, Calif., USA), and Antibiotics-Antimycotics (Invitrogen Corp. Cat #15240-062, Carlsbad, Calif., USA) was used as the medium (Neurobasal/B27/2-ME). However, the above Neurobasal medium not supplemented with 2-ME (Neurobasal/B27) was used for the assay. The cells were redispersed by mild pipetting of the cell mass to which the medium was added. The cell dispersion was filtered through a 40-μm nylon mesh (Cell Strainer, Cat #35-2340, Becton Dickinson Labware, Franklin Lakes, N.J., USA) to remove the remaining cell mass, and thus a neuronal cell suspension was obtained. The neuronal cell suspension was diluted with the medium and then plated in a volume of 100 μl/well at an initial cell density of 5×10^5 cells/cm^2 in a 96-well polystyrene culture plate pre-coated with poly-L or D-lysine (Falcon Cat #35-3075, Becton Dickinson Labware, Franklin Lakes, N.J., USA coated with poly-L-lysine using the method shown below, or BIOCOAT™ cell environments Poly-D-lysine cell ware 96-well plate, Cat #35-6461, Becton Dickinson Labware, Franklin Lakes, N.J., USA). Poly-L-lysine coating was carried out as follows. 100 μg/ml of a poly-L-lysine (SIGMA P2636, St. Louis, Mo., USA) solution was aseptically prepared with a 0.15 M borate buffer (pH 8.5). 100 μl/well of the solution was added to the 96-well polystyrene culture plate and incubated at room temperature for one or more hours or at 4° C. overnight or longer. The coated 96-well polystyrene culture plate was washed with sterile water four or more times, and then dried or rinsed with, for example, sterile PBS or medium, and used for cell plating. The plated cells were cultured in the culture plate at 37° C. in 5% CO2-95% air for one day. Then, the total amount of the medium was replaced with a fresh Neurobasal/B27/2-ME medium, and then the cells were cultured for further three days.
The drug was added to the culture plate on Day 4 of culture as follows. The total amount of the medium was removed from the wells, and 180 μl/well of Neurobasal medium not containing 2-ME and containing 2% B-27 (Neurobasal/B27) was added thereto. A solution of the test compound in dimethyl sulfoxide (hereinafter abbreviated as DMSO) was diluted with Neurobasal/B27 at 10-fold of the final concentration. 20 μl/well of the dilution was added to and sufficiently mixed with the medium. The final DMSO concentration was 1% or less. Only DMSO was added to the control group.
The cells were cultured for three days after addition of the compound, and the total amount of the medium was collected. […]

| Structure (SMILES) | IC50 [nM] |
| --- | --- |
| COc1cc(/C=C2\CC[C@H]3CC[C@@H](c4cc(F)c(F)c(F)c4)N3C2=O)ccc1-n1cnc(C)c1 [Example 3, (E)-(3S)-(3,4,5-trifluorophenyl)-6-[3-methoxy-4-(4-methyl-1H-imidazol-1-yl)benzylidene]-(9S)-hexahydroindolizin-5-one] | 63 |
| COc1cc(/C=C2\CC[C@H]3CC[C@@H](c4ccc(F)c(F)c4)N3C2=O)ccc1-n1cnc(C)c1 [Example 6, (E)-(3S)-(3,4-difluorophenyl)-6-[3-methoxy-4-(4-methyl-1H-imidazol-1-yl)benzylidene]-(9S)-hexahydroindolizin-5-one] | 120 |
| COc1cc(/C=C2\CC[C@H]3CCC[C@@H](c4ccc(F)cc4)N3C2=O)ccc1-n1cnc(C)c1 [Example 8, (E)-(6S,9aR)-6-(4-fluorophenyl)-3-[3-methoxy-4-(4-methyl-1H-imidazol-1-yl)benzylidene]octahydroquinolizin-4-one] | 73 |
| COc1cc(/C=C2\CC[C@@H]3C[C@H](O)C[C@@H](c4ccc(F)cc4)N3C2=O)ccc1-n1cnc(C)c1 [Example 11, (E)-(6S,8S,9aR)-6-(4-fluorophenyl)-8-hydroxy-3-[3-methoxy-4-(4-methyl-1H-imidazol-1-yl)benzylidene]octahydroquinolizin-4-one] | 97 |
| COc1cc(/C=C2\CC[C@@H]3CCC[C@@H](c4cc(F)c(F)c(F)c4)N3C2=O)ccc1-n1cnc(C)c1 [Example 13, (E)-(6S,9aS)-6-(3,4,5-trifluorophenyl)-3-[3-methoxy-4-(4-methyl-1H-imidazol-1-yl)benzylidene]octahydroquinolizin-4-one] | 91 |
| COc1cc(/C=C2\CC[C@@H]3C[C@H](O)C[C@@H](c4cc(F)c(F)c(F)c4)N3C2=O)ccc1-n1cnc(C)c1 [Example 15, (E)-(6S,8S,9aR)-6-(3,4,5-trifluorophenyl)-8-hydroxy-3-[3-methoxy-4-(4-methyl-1H-imidazol-1-yl)benzylidene]octahydroquinolizin-4-one] | 80 |
| COc1cc(/C=C2\CC[C@@H]3C[C@@H](O)C[C@@H](c4cc(F)c(F)c(F)c4)N3C2=O)ccc1-n1cnc(C)c1 [Example 17, (E)-(6S,8R,9aR)-6-(3,4,5-trifluorophenyl)-8-hydroxy-3-[3-methoxy-4-(4-methyl-1H-imidazol-1-yl)benzylidene]octahydroquinolizin-4-one] | 68 |
| COc1cc(/C=C2\CC[C@@H]3CCC[C@@H](c4ccc(F)cc4)N3C2=O)ccc1-n1cnc(C)c1 [Example 19, (E)-(6S,9aS)-6-(4-fluorophenyl)-3-[3-methoxy-4-(4-methyl-1H-imidazol-1-yl)benzylidene]octahydroquinolizin-4-one] | 129 |
| COc1ccc([C@@H]2CCC[C@@H]3CC/C(=C\c4ccc(-n5cnc(C)c5)c(OC)c4)C(=O)N32)cc1 [Example 30, (E)-(6S,9aR)-3-[3-methoxy-4-(4-methyl-1H-imidazol-1-yl)benzylidene]-6-(4-methoxyphenyl)octahydroquinolizin-4-one] | 109 |
| COc1cc(/C=C2\CC[C@H]3CCC[C@@H](c4cccc(F)c4)N3C2=O)ccc1-n1cnc(C)c1 [Example 41, (E)-(6S,9aR)-6-(3-fluorophenyl)-3-[3-methoxy-4-(4-methyl-1H-imidazol-1-yl)benzylidene]octahydroquinolizin-4-one] | 47 |
| COc1cc(/C=C2\CC[C@H]3CCC[C@@H](c4ccccc4F)N3C2=O)ccc1-n1cnc(C)c1 [Example 43, (E)-(6S,9aR)-6-(2-fluorophenyl)-3-[3-methoxy-4-(4-methyl-1H-imidazol-1-yl)benzylidene]octahydroquinolizin-4-one] | 66 |
| COc1cc(/C=C2\CC[C@@H]3CCC[C@H](c4ccccc4F)N3C2=O)ccc1-n1cnc(C)c1 [Example 44, (E)-(6R,9aS)-6-(2-fluorophenyl)-3-[3-methoxy-4-(4-methyl-1H-imidazol-1-yl)benzylidene]octahydroquinolizin-4-one] | 94 |
| COc1cc(/C=C2\CC[C@@H]3C[C@@](C)(O)C[C@@H](c4ccc(F)cc4)N3C2=O)ccc1-n1cnc(C)c1 [Example 45, (E)-(6S,8R,9aR)-6-(4-fluorophenyl)-8-hydroxy-3-[3-methoxy-4-(4-methyl-1H-imidazol-1-yl)benzylidene]-8-methyloctahydroquinolizin-4-one] | 160 |
| COc1cc(/C=C2\CC[C@@H]3CC(C)=C[C@@H](c4ccc(F)cc4)N3C2=O)ccc1-n1cnc(C)c1 [Example 49, (E)-(6S,9aR)-6-(4-fluorophenyl)-3-[3-methoxy-4-(4-methyl-1H-imidazol-1-yl)benzylidene]-8-methyl-1,2,3,6,9,9a-hexahydroquinolizin-4-one] | 210 |
| COc1cc(/C=C2\C[C@H]3CC[C@@H](c4ccc(F)c(F)c4)N3C2=O)ccc1-n1cnc(C)c1 [Example 54, (E)-(5S,7aR)-5-(3,4-difluorophenyl)-2-[3-methoxy-4-(4-methyl-1H-imidazol-1-yl)benzylidene]hexahydropyrrolidin-3-one] | 254 |
| COc1cc(/C=C2\CC[C@H]3CC[C@@H](c4ccc(Cl)cc4)N3C2=O)ccc1-n1cnc(C)c1 [Example 56, (E)-(3S,8aS)-3-(4-chlorophenyl)-6-[3-methoxy-4-(4-methyl-1H-imidazol-1-yl)benzylidene]hexahydroindolizin-5-one] | 55 |
| COc1cc(/C=C2\CC[C@H]3CC[C@@H](c4cc(F)c(F)cc4F)N3C2=O)ccc1-n1cnc(C)c1 [Example 57, (E)-(3S,8aS)-3-(2,4,5-trifluorophenyl)-6-[3-methoxy-4-(4-methyl-1H-imidazol-1-yl)benzylidene]hexahydroindolizin-5-one] | 62 |
| COc1cc(/C=C2\CC[C@H]3CC[C@@H](c4ccc(F)c(F)c4F)N3C2=O)ccc1-n1cnc(C)c1 [Example 58, (E)-(3S,8aS)-3-(2,3,4-trifluorophenyl)-6-[3-methoxy-4-(4-methyl-1H-imidazol-1-yl)benzylidene]hexahydroindolizin-5-one] | 73 |
| COc1cc(/C=C2\CC[C@H]3CC[C@@H](c4cc(F)cc(F)c4)N3C2=O)ccc1-n1cnc(C)c1 [Example 64, (E)-(3S,8aS)-3-(3,5-difluorophenyl)-6-[3-methoxy-4-(4-methyl-1H-imidazol-1-yl)benzylidene]hexahydroindolizin-5-one] | 67 |
| COc1cc(/C=C2\CC[C@@H]3CCC[C@@H](c4ccc(F)c(F)c4)N3C2=O)ccc1-n1cnc(C)c1 [Example 65, (E)-(6S,9aS)-6-(3,4-difluorophenyl)-3-[3-methoxy-4-(4-methyl-1H-imidazol-1-yl)benzylidene]octahydroquinolizin-4-one] | 68 |
| COc1cc(/C=C2\CC[C@H]3COC[C@@H](c4cc(F)c(F)c(F)c4)N3C2=O)ccc1-n1cnc(C)c1 [Example 83, (E)-(4R,9aS)-7-[3-methoxy-4-(4-methyl-1H-imidazol-1-yl)benzylidene]-4-(3,4,5-trifluorophenyl)hexahydropyrido[2,1-c][1,4]oxazin-6-one] | 37 |
| COc1cc(/C=C2\CC[C@H]3CC[C@@H](c4c(F)cc(F)cc4F)N3C2=O)ccc1-n1cnc(C)c1 [Example 89, (3S,8aS)-6-{1-[3-methoxy-4-(4-methyl-1H-imidazol-1-yl)phenyl]-(E)-methylidene}-3-(2,4,6-trifluorophenyl)hexahydroindolizin-5-one] | 88 |
